Measurements published in patent publication US4604239A, “Antibiotics” (Eli Lilly and Company, priority 1985, dated 1986).
Values joined by “and” are separate entries in the source; they are usually repeats but may differ in a detail not shown here. Equal values may be shown once. Read-outs that look alike come from different tables or passages of the source.

Experiments:
Hemophilus influenzae = test: agar-dilution MIC; type: cell-based; details: Table 17
[1] = tested on: Fusobacterium necrophorum; test: agar-dilution MIC; type: cell-based; details: Fusobacterium necrophorum 6054A; Table 14
Propionibacterium acnes = test: agar-dilution MIC; type: cell-based; details: Propionibacterium acnes 79; Table 14
Excerpt: Antibiotic A41030 factors A, B and C have also been tested and found to be active against a genus of anaerobic bacteria identified as Propionibacterium acnes.

Staph. aureus = test: experimental bacterial infection in mice; type: in vivo; details: two doses subcutaneously
Protocol: (§1) All of the A41030 factors tested have shown in vivo antimicrobial activity against experimental bacterial infections. When two doses of test compound were administered subcutaneously to mice in illustrative infections, the activity observed is measured as an ED50 value [effective dose in mg./kg. to protect fifty percent of the test animals: See Warren Wick, et al., J. Bacteriol. 81, 233-235 (1961)].

S. pneumoniae = test: experimental bacterial infection in mice; type: in vivo; details: two doses subcutaneously
Protocol: as §1

Clostridium difficile = type: cell-based
Bacteroides vulgatis = test: agar-dilution MIC; type: cell-based; details: Bacteroides vulgatis 1211; Table 14
Staphylococcus aureus = test: agar-dilution MIC; type: cell-based
Eubacterium aerofaciens = test: agar-dilution MIC; type: cell-based; details: Eubacterium aerofaciens 1235; Table 14
[2] = tested on: Bacteroides melaninogenicus; test: agar-dilution MIC; type: cell-based; details: Bacteroides melaninogenicus 2736; Table 14
electrometric titration = type: physicochemical; details: electrometric titration in 66% dimethylformamide in water
Excerpt: Antibiotic A41030 factor A is a white, crystalline solid.

Peptococcus prevoti = test: agar-dilution MIC; type: cell-based; details: Peptococcus prevoti 1281; Table 14
Clostridium septicum = test: agar-dilution MIC; type: cell-based; details: Clostridium septicum 1128; Table 14
Bacteroides fragilis = test: agar-dilution MIC; type: cell-based; details: Table 14
Excerpt: (§2) The agar-dilution procedure described by the International Collaborative study (ICS) group was used to determine the minimum inhibitory concentrations (MIC's).

[3] = tested on: Staphylococcus epidermidis; test: agar-dilution MIC; type: cell-based; details: Staphylococcus epidermidis EPI1; Table 17
Excerpt: as §2

Streptococcus pneumoniae = test: agar-dilution MIC; type: cell-based; details: Streptococcus pneumoniae Park I; Table 17
Excerpt: as §2

[4] = tested on: Streptococcus sp. (Group D); test: agar-dilution MIC; type: cell-based; details: Table 17
Excerpt: as §2

Streptococcus pyogenes = test: agar-dilution MIC; type: cell-based; details: Streptococcus pyogenes C203; Table 17
Excerpt: as §2

Clostridium perfringens = type: cell-based; details: Clostridium perfringens 81; Table 14
S. pyogenes = test: experimental bacterial infection in mice; type: in vivo; details: S. pyogenes infection in mice; two doses subcutaneously
solubility = type: physicochemical
Fusobacterium symbiosum = test: agar-dilution MIC; type: cell-based; details: Fusobacterium symbiosum 1470; Table 14
[5] = tested on: Peptostreptococcus intermedius; test: agar-dilution MIC; type: cell-based; details: Peptostreptococcus intermedius 1264; Table 14
[6] = tested on: Bacteroides thetaiotaomicron; type: cell-based; details: Bacteroides thetaiotaomicron 1438; Table 14
Excerpt: as §2

[7] = tested on: Peptostreptococcus anaerobius; test: agar-dilution MIC; type: cell-based; details: Peptostreptococcus anaerobius 1428; Table 14
[8] = tested on: Peptococcus asaccharolyticus; test: agar-dilution MIC; type: cell-based; details: Peptococcus asaccharolyticus 1302; Table 14
Protocol: The MIC values were determined by the agar-dilution method, and are recorded in Table 15, which follows.

Bacteroides corrodens = test: agar-dilution MIC; type: cell-based; details: Bacteroides corrodens 1874; Table 14
[9] = Clostridium difficile 78, Table 16
[10] = Clostridium difficile 107B, Table 16
[11] = Clostridium difficile 111F, Table 16
[12] = Clostridium difficile 1153, Table 16
[13] = Clostridium difficile 2634, Table 16
[14] = Clostridium difficile 3424-5B, Table 16
[15] = Clostridium difficile 3816, Table 16
[16] = Clostridium difficile 6890, Table 16
[17] = Clostridium difficile 8484, Table 16
[18] = Clostridium difficile A-194, Table 16
[19] = Clostridium difficile A-195, Table 16
[20] = Clostridium difficile A-196, Table 16
[21] = Clostridium difficile A-279, Table 16
[22] = Clostridium difficile A-280, Table 16
[23] = Clostridium difficile A-281, Table 16
[24] = Clostridium difficile WAL-2112, Table 16
[25] = Clostridium difficile WAL-3657, Table 16
[26] = Clostridium difficile WAL-4268, Table 16
[27] = Staphylococcus aureus S13E, Table 17

A41030 factor F
MIC (Hemophilus influenzae; Haemophilus influenzae 76): 32 µg/mL
MIC (Hemophilus influenzae; Haemophilus influenzae C.L.): 32 µg/mL
MIC [1]: 1.0 µg/mL
MIC (Propionibacterium acnes): 1.0 µg/mL
ED50 (Staph. aureus): < 0.31 mg/kg
ED50 (S. pneumoniae): > 5.0 mg/kg
MIC (Clostridium difficile; [9]): 1.0 µg/mL
MIC (Clostridium difficile; [10]): 1.0 µg/mL
MIC (Clostridium difficile; [11]): 2 µg/mL
MIC (Clostridium difficile; [12]): 2 µg/mL
MIC (Clostridium difficile; [13]): 2 µg/mL
MIC (Clostridium difficile; [14]): 1.0 µg/mL
MIC (Clostridium difficile; [15]): 1.0 µg/mL
MIC (Clostridium difficile; [16]): 1.0 µg/mL
MIC (Clostridium difficile; [17]): 1.0 µg/mL
MIC (Clostridium difficile; [18]): 1.0 µg/mL
MIC (Clostridium difficile; [19]): 1.0 µg/mL
MIC (Clostridium difficile; [20]): 2 µg/mL
MIC (Clostridium difficile; [21]): 1.0 µg/mL
MIC (Clostridium difficile; [22]): 1.0 µg/mL
MIC (Clostridium difficile; [23]): 2 µg/mL
MIC (Clostridium difficile; [24]): 1.0 µg/mL
MIC (Clostridium difficile; [25]): 1.0 µg/mL
MIC (Clostridium difficile; [26]): 1.0 µg/mL
MIC (Bacteroides vulgatis): 32 µg/mL
MIC (Staphylococcus aureus; [27]): 1 µg/mL
MIC (Staphylococcus aureus; in µg/mL): 0.5 and 1
MIC (Eubacterium aerofaciens): 1.0 µg/mL
MIC [2]: 1.0 µg/mL
possibly additional pKa's (electrometric titration): > 10
MIC (Peptococcus prevoti): 32 µg/mL
MIC (Clostridium septicum): 1.0 µg/mL
MIC (Bacteroides fragilis; Bacteroides fragilis 111): 32 µg/mL
MIC (Bacteroides fragilis; Bacteroides fragilis 1877): 32 µg/mL
MIC (Bacteroides fragilis; Bacteroides fragilis 1936B): 32 µg/mL
MIC [3]: 0.25 µg/mL
MIC (Streptococcus pneumoniae): 2 µg/mL
MIC ([4]; Streptococcus sp. Group D 9960): 4 µg/mL
MIC ([4]; Streptococcus sp. Group D X66): 4 µg/mL
MIC (Streptococcus pyogenes): 2 µg/mL
MIC (Clostridium perfringens): 1.0 µg/mL
ED50 (S. pyogenes): > 5.0 mg/kg
solubility (solvents) (solubility): soluble in the same solvents as factor A
MIC (Fusobacterium symbiosum): 1.0 µg/mL
MIC [5]: 1.0 µg/mL
MIC [6]: 64 µg/mL
MIC [7]: 32 µg/mL
MIC [8]: ≤ 0.25 µg/mL
MIC (Bacteroides corrodens): 32 µg/mL

A41030 factor E
MIC (Hemophilus influenzae; Haemophilus influenzae 76): 8 µg/mL
MIC (Hemophilus influenzae; Haemophilus influenzae C.L.): 8 µg/mL
MIC [1]: 0.5 µg/mL
MIC (Propionibacterium acnes): 0.5 µg/mL
ED50 (Staph. aureus): < 0.31 mg/kg
MIC (Clostridium difficile; [9]): 0.5 µg/mL
MIC (Clostridium difficile; [10]): 0.5 µg/mL
MIC (Clostridium difficile; [11]): 0.5 µg/mL
MIC (Clostridium difficile; [12]): 1.0 µg/mL
MIC (Clostridium difficile; [13]): 1.0 µg/mL
MIC (Clostridium difficile; Clostridium difficile 2994, Table 14): 0.5 µg/mL
MIC (Clostridium difficile; [14]): 0.5 µg/mL
MIC (Clostridium difficile; [15]): 0.5 µg/mL
MIC (Clostridium difficile; Clostridium difficile 3950D, Table 16): 0.5 µg/mL
MIC (Clostridium difficile; [16]): 0.5 µg/mL
MIC (Clostridium difficile; [17]): 0.5 µg/mL
MIC (Clostridium difficile; [18]): 0.5 µg/mL
MIC (Clostridium difficile; [19]): 0.5 µg/mL
MIC (Clostridium difficile; [20]): 1.0 µg/mL
MIC (Clostridium difficile; [21]): 0.5 µg/mL
MIC (Clostridium difficile; [22]): 0.5 µg/mL
MIC (Clostridium difficile; [23]): 1.0 µg/mL
MIC (Clostridium difficile; [24]): 0.5 µg/mL
MIC (Clostridium difficile; [25]): 0.5 µg/mL
MIC (Clostridium difficile; [26]): 0.5 µg/mL
MIC (Bacteroides vulgatis): 32 µg/mL
MIC (Staphylococcus aureus; [27]): 0.25 µg/mL
MIC (Staphylococcus aureus; in µg/mL): 0.125 and 0.25
MIC (Eubacterium aerofaciens): 0.5 µg/mL
MIC [2]: 32 µg/mL
possibly additional pKa's (electrometric titration): > 10
MIC (Peptococcus prevoti): 32 µg/mL
MIC (Clostridium septicum): 0.5 µg/mL
MIC (Bacteroides fragilis; Bacteroides fragilis 111): 64 µg/mL
MIC (Bacteroides fragilis; Bacteroides fragilis 1877): 32 µg/mL
MIC (Bacteroides fragilis; Bacteroides fragilis 1936B): 64 µg/mL
MIC [3]: 0.25 µg/mL
MIC (Streptococcus pneumoniae): 0.25 µg/mL
MIC ([4]; Streptococcus sp. Group D 9960): 1 µg/mL
MIC ([4]; Streptococcus sp. Group D X66): 1 µg/mL
MIC (Streptococcus pyogenes): 0.25 µg/mL
MIC (Clostridium perfringens): 1.0 µg/mL
solubility (solvents) (solubility): soluble in the same solvents as factor A
MIC (Fusobacterium symbiosum): 1.0 µg/mL
MIC [5]: 32 µg/mL
MIC [6]: 64 µg/mL
MIC [7]: 32 µg/mL
MIC [8]: ≤ 0.25 µg/mL
MIC (Bacteroides corrodens): 64 µg/mL
